This assay deals with SARS-CoV-2 3CLpro (Severe acute respiratory syndrome coronavirus 2, UniProt P0DTD1). The assay is described as follows: biochemical. The conditions noted are these: for mean (LOPAC screen with protease) / Replicate_1 (LOPAC screen with protease) / Replicate_2 (LOPAC screen with protease): primary screen at 5 µM; for inhibition at 5 µM: 4 h. Details: Replicate_1 / Replicate_2 / mean / mean (LOPAC_screen_w_protease): unit not given here. Format: biochemical.

Where [1] appears, read: sheet LOPAC_screen_w_protease, mean of two replicates.
Setting [2] is: sheet LOPAC_screen_w_protease, replicate 1.
Where [3] appears, read: sheet LOPAC_screen_w_protease, replicate 2.
Setting [4] is: sheet LOPAC_screen_w_protease, LOPAC1280 primary screen with protease, 5 µM compound, mean of the two replicates.
Setting [5] is: sheet LOPAC_screen_w_protease, LOPAC1280 primary screen with protease, 5 µM compound, replicate 1.
The mark [6] stands for this setting: sheet LOPAC_screen_w_protease, LOPAC1280 primary screen with protease, 5 µM compound, replicate 2.
Where [7] appears, read: sheet LOPAC_screen_w_protease, primary screen with protease, mean of two replicates.
Where [8] appears, read: sheet LOPAC_screen_w_protease, primary screen with protease, replicate 1.
The mark [9] stands for this setting: sheet LOPAC_screen_w_protease, primary screen with protease, replicate 2.
Setting [10] is: LOPAC1280 primary screen with protease, 5 µM compound, replicate 1, read-out: Replicate_1 (LOPAC_screen_w_protease).
The mark [11] stands for this setting: LOPAC1280 primary screen with protease, 5 µM compound, replicate 2, read-out: Replicate_2 (LOPAC_screen_w_protease).
[12] abbreviates: LOPAC1280 primary screen with protease, 5 µM compound, mean of the two replicates.
[13] abbreviates: sheet LOPAC_screen_w_protease, LOPAC1280 primary screen at 5 µM, with protease, mean of the two replicates.
Setting [14] is: sheet LOPAC_screen_w_protease, LOPAC1280 primary screen at 5 µM, with protease, replicate 1.
Where [15] appears, read: sheet LOPAC_screen_w_protease, LOPAC1280 primary screen at 5 µM, with protease, replicate 2.
[16] abbreviates: sheet LOPAC_screen_w_protease, primary screen with protease, 5 µM, mean of two replicates.
Where [17] appears, read: sheet LOPAC_screen_w_protease, primary screen with protease, 5 µM, replicate 1.
The mark [18] stands for this setting: sheet LOPAC_screen_w_protease, primary screen with protease, 5 µM, replicate 2.
Where [19] appears, read: LOPAC1280 primary screen with protease, 5 µM compound, replicate 1.

Structures can show the parent of a compound that is named as a salt. Where two headings read alike, the source gives them in different places.

Turning to `CCCn1c(=O)c2[nH]c(C3CCCC3)nc2n(CCCOC(=O)c2ccc(S(=O)(=O)F)cc2)c1=O` [FSCPX], the “mean (LOPAC screen with protease)” value under setting [1] was determined as 6.832. Moreover, the “Replicate_1 (LOPAC screen with protease)” value under setting [2] is given as 8.115. The “Replicate_2 (LOPAC screen with protease)” value under setting [3] is 5.548.
Picrotoxin yielded a mean under setting [4] of 4.15. Under setting [5], this molecule showed a Replicate_1 of 3.321. The Replicate_2 under setting [6] was 4.978.
For the molecule `C[C@](N)(Cc1ccc(O)c(O)c1)C(=O)O` [L-alpha-Methyl DOPA], the “mean (LOPAC screen with protease)” value under setting [1] came to 7.163. Under setting [2], the “Replicate_1 (LOPAC screen with protease)” value was determined as 6.315. In addition, the “Replicate_2 (LOPAC screen with protease)” value under setting [3] was found to be 8.01.
Under setting [7], `COc1ccc2c(c1)c(CC(=O)O)c(C)n2Cc1ccc(F)cc1` gave a mean of 2.348. This molecule gave a Replicate_1 under setting [8] of 3.38. This molecule also registered a Replicate_2 under setting [9] of 1.3165.
As for `OC[C@H]1NC[C@H](O)[C@@H](O)[C@@H]1O` [1-Deoxynojirimycin hydrochloride], the inhibition at 5 µM amounted to 2.78% (sheet LOPAC_screen_w_protease, primary screen with protease, compound at 5 µM, mean of two replicates, read-out: mean); 4.02% (sheet LOPAC_screen_w_protease, primary screen with protease, compound at 5 µM, replicate 1, read-out: Replicate_1); 1.54% (sheet LOPAC_screen_w_protease, primary screen with protease, compound at 5 µM, replicate 2, read-out: Replicate_2).
`COc1ccc(CCCOC(Cn2ccnc2)c2ccc(OC)cc2)cc1` (centres unmarked) [SKF 96365]: the inhibition at 5 µM reads like this: under setting [10], 1.52%; under setting [11], 2.09%. The “mean (LOPAC_screen_w_protease)” value under setting [12] worked out at 1.802.
As to `CCC1(C)CC(=O)NC1=O` (centres unmarked) [Ethosuximide], the inhibition at 5 µM is 4.21% under setting [10] and -0.21% under setting [11]. Further, the “mean (LOPAC_screen_w_protease)” value under setting [12] is on record as 1.998.
Turning to `Cn1c(=O)c2[nH]c(-c3ccccc3)nc2n(C)c1=O` [1,3-Dimethyl-8-phenylxanthine], the mean under setting [4] was determined as 6.36. Also, the Replicate_1 under setting [5] was 5.626. This molecule returned a Replicate_2 under setting [6] of 7.0953.
The molecule `COC(=O)C(N)Cc1ccc(Cl)cc1.Cl` (racemic) came in with a mean under setting [13] of 0.6507. This molecule registered a Replicate_1 under setting [14] of 2.428. Under setting [15], this molecule displayed a Replicate_2 of -1.1263.
Where the note is “sheet LOPAC_screen_w_protease, primary screen with protease, compound at 5 µM, mean of two replicates”, `C[C@@H](NC(=O)/C(C#N)=C/c1ccc(O)c(O)c1)c1ccccc1` [Tyrphostin AG 527] gave a mean of 2.942. This molecule also had a Replicate_1 (sheet LOPAC_screen_w_protease, primary screen with protease, compound at 5 µM, replicate 1) of 4.113. Further, the Replicate_2 (sheet LOPAC_screen_w_protease, primary screen with protease, compound at 5 µM, replicate 2) came to 1.771.
Consider `CC(=O)OC(C)C[N+](C)(C)C.[Cl-]` (stereo not drawn) [Acetyl-beta-methylcholine chloride], for which, under setting [16], the mean is 0.2718. Also, under setting [17], the Replicate_1 was 1.198. This molecule yielded a Replicate_2 under setting [18] of -0.6541.
Regarding `NC(=O)OCC(COC(N)=O)c1ccccc1` [Felbamate], the inhibition at 5 µM by setting is: (sheet LOPAC_screen_w_protease, primary screen with protease, mean of two replicates, read-out: mean) 2.23%; (sheet LOPAC_screen_w_protease, primary screen with protease, replicate 1, read-out: Replicate_1) 3.62%; (sheet LOPAC_screen_w_protease, primary screen with protease, replicate 2, read-out: Replicate_2) 0.843%.
Take `O=C(O)C1=CCNCC1` [Isoguvacine hydrochloride]: the inhibition at 5 µM is 2.64% under setting [10] and 1.29% under setting [11]. The “mean (LOPAC_screen_w_protease)” value under setting [12] turned out to be 1.964.
Turning to `Br.NCc1cc(O)no1` [Muscimol hydrobromide], the mean under setting [16] turned out to be 0.06352. The same molecule returned a Replicate_1 under setting [17] of 2.752. Besides, under setting [18], the Replicate_2 is listed as -2.625.
Take `CC(C)CC(N)CSSCC(N)CC(C)C.Cl.Cl` [L-Leucinethiol, oxidized dihydrochloride]: the “mean (LOPAC screen with protease)” value under setting [1] is 45.1144. For the same molecule, under setting [2], the “Replicate_1 (LOPAC screen with protease)” value is listed as 48.0888. Under setting [3], the “Replicate_2 (LOPAC screen with protease)” value was 42.1401.
On to `C[N+]1(C)CCC(OC(=O)C(c2ccccc2)c2ccccc2)CC1.[I-]` [4-DAMP methiodide], for which, under setting [7], the mean worked out at 2.136. In addition, the Replicate_1 under setting [8] is on record as 2.4758. In addition, the Replicate_2 under setting [9] turned out to be 1.796.
In turn, `C[N+](C)(CCCCCC[N+](C)(C)CCCN1C(=O)c2cccc3cccc(c23)C1=O)CCCN1C(=O)c2cccc3cccc(c23)C1=O.[Br-].[Br-]` [WB 64] came in with a mean under setting [13] of 0.6302. This molecule registered a Replicate_1 under setting [14] of 0.2165. Also, the Replicate_2 under setting [15] stood at 1.044.
For the setting “sheet LOPAC_screen_w_protease, LOPAC1280 at 5 µM, mean of two replicates”, `O=C(Cc1ccc(Cl)c(Cl)c1)OCCN1CCCC1.O=C(O)C(=O)O` [AC 915 oxalate] registered a mean of 1.181. The molecule further returned a Replicate_1 (sheet LOPAC_screen_w_protease, LOPAC1280 at 5 µM, replicate 1) of 1.4848. The molecule also yielded a Replicate_2 (sheet LOPAC_screen_w_protease, LOPAC1280 at 5 µM, replicate 2) of 0.8765.
The molecule `CCCCN1CCC(n2c(=O)[nH]c3ccccc32)CC1.O=C(O)C(=O)O` [NS 521 oxalate] showed a mean (sheet LOPAC_screen_w_protease, primary screen of LOPAC1280 at 5 µM with protease, mean of the two replicates) of 3.504. The Replicate_1 (sheet LOPAC_screen_w_protease, primary screen of LOPAC1280 at 5 µM with protease, replicate 1) was 2.6467. Besides, under “sheet LOPAC_screen_w_protease, primary screen of LOPAC1280 at 5 µM with protease, replicate 2”, the Replicate_2 turned out to be 4.361.
The molecule `c1ccc(-c2ccccn2)nc1` [2,2'-Bipyridyl] had a mean under setting [13] of 0.8479. This molecule also showed a Replicate_1 under setting [14] of 3.924. The Replicate_2 under setting [15] is on record as -2.2286.
`COc1ccc2c(c1OC)C(=O)O[C@@H]2[C@H]1c2c(cc3c(c2OC)OCO3)CCN1C.Cl` [Noscapine hydrchloride]: under setting [12], the “mean (LOPAC_screen_w_protease)” value is 1.752. For the same molecule, under setting [19], the “Replicate_1 (LOPAC_screen_w_protease)” value worked out at 0.9869.
As for `COc1cc2nc(N3CCN(C(=O)C4COc5ccccc5O4)CC3)nc(N)c2cc1OC` (centres unmarked) [Doxazosin mesylate], the inhibition at 5 µM by setting is: under setting [10], 3.96%; under setting [11], -0.00681%. Besides, the “mean (LOPAC_screen_w_protease)” value under setting [12] is recorded as 1.977.
As for `O=C(O)c1cc2cc(F)ccc2[nH]1` [5-Fluoroindole-2-carboxylic acid], the inhibition at 5 µM is, setting by setting: (sheet LOPAC_screen_w_protease, primary screen with protease, 5 µM, mean of two replicates, read-out: mean) -0.381%; (sheet LOPAC_screen_w_protease, primary screen with protease, 5 µM, replicate 1, read-out: Replicate_1) 0.54%; (sheet LOPAC_screen_w_protease, primary screen with protease, 5 µM, replicate 2, read-out: Replicate_2) -1.3%.
On to `O=C(O)CN(CCOCCOCCN(CC(=O)O)CC(=O)O)CC(=O)O`, for which the Replicate_1 worked out at 4.424, the Replicate_2 worked out at 0.4872 and the mean worked out at 2.456.
As to `CC(C)(Sc1ccc(CCN(CCCCC2CCCCC2)C(=O)NC2CCCCC2)cc1)C(=O)O` [GW7647], under setting [16], the mean was -0.2447. The same molecule showed a Replicate_1 under setting [17] of -0.1471. This molecule also came in with a Replicate_2 under setting [18] of -0.3423.
Consider `CCCNC(=O)NS(=O)(=O)c1ccc(Cl)cc1` [Chlorpropamide], for which the inhibition at 5 µM was found to be 1.51% under setting [10] and 2.73% under setting [11]. For the same molecule, the “mean (LOPAC_screen_w_protease)” value under setting [12] turned out to be 2.118.
Molecule `CSc1nc(N)c2ncn([C@@H]3O[C@H](COP(=O)([O-])OP(=O)([O-])OP(=O)([O-])[O-])[C@@H](O)[C@H]3O)c2n1.[Na+].[Na+].[Na+].[Na+]` yielded a mean under setting [7] of 2.299. Also, the Replicate_1 under setting [8] is 2.88. Besides, under setting [9], the Replicate_2 is on record as 1.718.
With `Nc1nc(Cl)nc2c1ncn2[C@@H]1O[C@H](CO)[C@@H](O)[C@H]1O` [2-Chloroadenosine], the “mean (LOPAC_screen_w_protease)” value (LOPAC1280 primary screen with protease, 5 µM compound, mean of two replicates) was found to be 1.409. The “Replicate_1 (LOPAC_screen_w_protease)” value under setting [19] is recorded as 1.21. The “Replicate_2 (LOPAC_screen_w_protease)” value (LOPAC1280 primary screen with protease, 5 µM compound, replicate 2) is recorded as 1.608.
For the molecule `Cl.NC[C@@H]1O[C@H](C23CC4CC(CC(C4)C2)C3)Cc2c1ccc(O)c2O` [A-77636 hydrochloride], the “mean (LOPAC screen with protease)” value under setting [1] was 61.6634. Further, the “Replicate_1 (LOPAC screen with protease)” value under setting [2] came to 62.3885. The “Replicate_2 (LOPAC screen with protease)” value under setting [3] is recorded as 60.9383.
Regarding `CCCCCN(CCCCC)C(=O)C(CCC(=O)O)NC(=O)c1ccc(Cl)c(Cl)c1` (centres unmarked) [Lorglumide sodium], the inhibition at 5 µM by setting is: (sheet LOPAC_screen_w_protease, primary screen of LOPAC1280 at 5 µM with protease, mean of the two replicates, read-out: mean) 3.65%; (sheet LOPAC_screen_w_protease, primary screen of LOPAC1280 at 5 µM with protease, replicate 1, read-out: Replicate_1) 2.9%; (sheet LOPAC_screen_w_protease, primary screen of LOPAC1280 at 5 µM with protease, replicate 2, read-out: Replicate_2) 4.4%.
In the case of `C#C[C@]1(O)CC[C@H]2[C@@H]3CCC4=Cc5nc6nc7ccccc7n6cc5C[C@]4(C)[C@H]3CC[C@@]21C` [WIN 62,577], the Replicate_1 is -0.8505, the Replicate_2 stood at 3.428 and the mean was 1.289.
